Results reported in ChEMBL document CHEMBL1759891, “Structure based design, synthesis and SAR of cyclic hydroxyethylamine (HEA) BACE-1 inhibitors” (Bioorg Med Chem Lett, 2011).

Legend:
Beta-secretase 1 [1] = biological target: T1, Beta-secretase 1 (Homo sapiens, UniProt P56817); test: Inhibition of human BACE-1
Cathepsin D = Cathepsin D (Homo sapiens, UniProt P07339); test: Inhibition of human cathepsin D
Beta-secretase 1 [2] = biological target: T1, Beta-secretase 1; test: Inhibition of human BACE-1-mediated amyloid beta 40 release in APP-transfected […] cells; format: cell-based
[3] = Dissociation constant, pKa of the compound; format: physicochemical
MDR1 (P-gp) [4] = test: Permeability from basolateral to apical side in dog MDCK cells expressing human MDR-1 gene; format: ADME, cell-based, Canis lupus familiaris; conditions: read-out: permeability
MDR1 (P-gp) [5] = test: Permeability from apical to basolateral side in dog MDCK cells expressing human MDR-1 gene; format: ADME, cell-based, Canis lupus familiaris; conditions: read-out: permeability
MDR1 (P-gp) [6] = test: Efflux ratio of permeability from basolateral to apical side to apical to basolateral side of dog MDCK cells expressing human MDR1; format: ADME, cell-based, Canis lupus familiaris
Brain = test: Drug level in brain of mouse at 2 umol/kg, iv; format: ADME, organism-based; conditions: in vivo, read-out: Drug uptake
Homo sapiens = species: Homo sapiens; test: Selectivity ratio of IC50 for human cathepsin D to IC50 for human BACE-1
[7] = Metabolic stability in rat liver microsomes assessed as half life; format: ADME, Microsome
Plasma = test: Drug level in plasma of mouse at 2 umol/kg, iv; format: ADME; conditions: read-out: Drug uptake

T1 sequence (P56817 whole entry): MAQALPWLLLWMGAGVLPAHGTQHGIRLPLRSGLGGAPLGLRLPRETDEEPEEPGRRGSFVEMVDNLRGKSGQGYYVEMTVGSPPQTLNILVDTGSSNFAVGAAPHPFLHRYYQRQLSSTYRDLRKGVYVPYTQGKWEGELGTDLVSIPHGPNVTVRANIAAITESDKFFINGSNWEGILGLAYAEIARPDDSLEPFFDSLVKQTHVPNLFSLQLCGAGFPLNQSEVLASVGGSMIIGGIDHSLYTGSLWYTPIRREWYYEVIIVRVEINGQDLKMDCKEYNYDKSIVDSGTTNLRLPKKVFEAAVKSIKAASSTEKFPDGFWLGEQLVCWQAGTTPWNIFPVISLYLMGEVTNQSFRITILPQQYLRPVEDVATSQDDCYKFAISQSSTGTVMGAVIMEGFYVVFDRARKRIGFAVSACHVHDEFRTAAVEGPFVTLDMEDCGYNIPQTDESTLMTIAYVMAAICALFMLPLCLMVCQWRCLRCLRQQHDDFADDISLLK
Sequence of Cathepsin D (P07339 65-162 limits assumed): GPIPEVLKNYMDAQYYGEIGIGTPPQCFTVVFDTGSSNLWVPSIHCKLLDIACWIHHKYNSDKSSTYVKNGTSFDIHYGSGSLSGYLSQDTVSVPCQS
Sequence of Cathepsin D (P07339 169-412 limits assumed): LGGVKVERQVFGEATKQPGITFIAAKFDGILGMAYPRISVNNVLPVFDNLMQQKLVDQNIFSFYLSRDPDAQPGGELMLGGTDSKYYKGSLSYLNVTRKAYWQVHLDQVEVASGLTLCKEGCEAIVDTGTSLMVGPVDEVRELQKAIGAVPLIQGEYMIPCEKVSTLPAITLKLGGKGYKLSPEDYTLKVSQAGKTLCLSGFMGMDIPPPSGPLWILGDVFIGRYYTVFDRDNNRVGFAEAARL

Structure (SMILES) | IC50 (Beta-secretase 1 [1]) | IC50 (Cathepsin D) | IC50 (Beta-secretase 1 [2]) | pKa [3] | Papp B→A (MDR1 (P-gp) [4]) | Papp A→B (MDR1 (P-gp) [5]) | efflux ratio (MDR1 (P-gp) [6]) | concentration (Brain) | Ratio IC50 (Homo sapiens) | half-life [7] | concentration (Plasma)
CC(C)Oc1cccc(CN[C@H]2CS(=O)(=O)C[C@@H](Cc3ccc(O)c(Br)c3)[C@@H]2O)c1 | 1400 nM | 670 nM | 8500 nM | – | – | – | – | – | – | – | –
CC(C)c1cccc(CN[C@H]2COC[C@@H](Cc3ccc(O)c(Br)c3)[C@@H]2O)c1 | 55000 nM | – | – | 7.1 | – | – | – | – | – | – | –
CC(C)c1cccc(CN[C@H]2CS(=O)(=O)C[C@@H](Cc3ccc(O)cc3)[C@@H]2O)c1 (racemic) | 1800 nM | 5400 nM | – | – | 37 ×10⁻⁶ cm/s | 9 ×10⁻⁶ cm/s | 4.2 | – | – | – | –
O=S1(=O)C[C@@H](Cc2ccc(O)c(Br)c2)[C@H](O)[C@@H](NCc2cccc(C3CC3)c2)C1 | – | – | – | 5.7 | – | – | – | – | – | – | –
CC(C)c1cccc(CN[C@H]2CS(=O)(=O)C[C@@H](Cc3ccc(O)c(CCO)c3)[C@@H]2O)c1 | 990 nM | 1700 nM | – | – | 28 ×10⁻⁶ cm/s | 0.9 ×10⁻⁶ cm/s | 32 | – | – | – | –
CC(=O)N[C@@H](Cc1cc(F)cc(F)c1)[C@H](O)CNCc1cccc(C(C)C)c1 | 3200 nM | 4700 nM | – | – | 41 ×10⁻⁶ cm/s | 2.2 ×10⁻⁶ cm/s | 18 | – | – | – | –
CCc1cc(C[C@@H]2CS(=O)(=O)C[C@H](NCc3cccc(C(C)C)c3)[C@H]2O)ccc1O | 370 nM | 2400 nM | – | – | 45 ×10⁻⁶ cm/s | 15 ×10⁻⁶ cm/s | 3.1 | – | – | – | –
CC(C)c1cccc(CN[C@H]2CS(=O)(=O)C[C@@H](Cc3ccccc3)[C@@H]2O)c1 (racemic) | 1100 nM | 1900 nM | – | – | 24 ×10⁻⁶ cm/s | 19 ×10⁻⁶ cm/s | 1.2 | – | – | – | –
CCCc1cc(C[C@@H]2CS(=O)(=O)C[C@H](NCc3cccc(C(C)C)c3)[C@H]2O)ccc1O | 190 nM | 1800 nM | – | – | 18 ×10⁻⁶ cm/s | 4.2 ×10⁻⁶ cm/s | 4.4 | – | – | – | –
O=S1(=O)C[C@@H](Cc2ccc(O)c(Br)c2)[C@H](O)[C@@H](NCc2ccccc2)C1 | 66000 nM | – | – | – | – | – | – | – | – | – | –
COc1ccc(C[C@@H]2CS(=O)(=O)C[C@H](NCc3cccc(C(C)C)c3)[C@H]2O)cc1Br | 2800 nM | 2400 nM | – | – | 9.7 ×10⁻⁶ cm/s | 3.7 ×10⁻⁶ cm/s | 2.6 | – | – | – | –
CNC(=O)Oc1ccc(C[C@@H]2CS(=O)(=O)C[C@H](NCc3cccc(C(C)C)c3)[C@H]2O)cc1Br | 60 nM | 370 nM | – | – | 88 ×10⁻⁶ cm/s | 3.8 ×10⁻⁶ cm/s | 23 | – | – | – | –
CC(C)(C)c1cccc(CN[C@H]2CS(=O)(=O)C[C@@H](Cc3ccc(O)c(Br)c3)[C@@H]2O)c1 | 55 nM | 420 nM | 550 nM | – | 16 ×10⁻⁶ cm/s | 7.7 ×10⁻⁶ cm/s | 2.1 | 180 nM | – | 6 min | 320 nM
CC(C)c1cccc(CN[C@H]2CS(=O)(=O)C[C@@H](Cc3cccc(Br)c3)[C@@H]2O)c1 (racemic) | 760 nM | 2300 nM | – | – | 7.7 ×10⁻⁶ cm/s | 5.4 ×10⁻⁶ cm/s | 1.4 | – | – | – | –
Cc1cccc(Cc2cc(C[C@@H]3CS(=O)(=O)C[C@H](NCc4cccc(C(C)C)c4)[C@H]3O)ccc2O)c1 (racemic) | 6200 nM | 7100 nM | – | – | – | – | – | – | – | – | –

Continued, values first:

IC50 (Beta-secretase 1 [1]) | IC50 (Cathepsin D) | IC50 (Beta-secretase 1 [2]) | pKa [3] | Papp B→A (MDR1 (P-gp) [4]) | Papp A→B (MDR1 (P-gp) [5]) | efflux ratio (MDR1 (P-gp) [6]) | concentration (Brain) | Ratio IC50 (Homo sapiens) | half-life [7] | concentration (Plasma) | Structure (SMILES)
4300 nM | – | – | – | – | – | – | – | – | – | – | CC(C)c1ccnc(CN[C@H]2CS(=O)(=O)C[C@@H](Cc3ccc(O)c(Br)c3)[C@@H]2O)c1
4200 nM | – | – | – | – | – | – | – | – | – | – | O=S1(=O)C[C@@H](Cc2ccc(O)c(Br)c2)[C@H](O)[C@@H](NCc2cc(Cl)cc(Cl)c2)C1
1100 nM | 900 nM | – | – | 13 ×10⁻⁶ cm/s | 7 ×10⁻⁶ cm/s | 1.8 | – | – | – | – | CCCOCc1cccc(C[C@@H]2CS(=O)(=O)C[C@H](NCc3cccc(C(C)C)c3)[C@H]2O)c1 (racemic)
300 nM | 1200 nM | 1500 nM | – | 33 ×10⁻⁶ cm/s | 11 ×10⁻⁶ cm/s | 3 | 210 nM | 10 | 3 min | 1030 nM | CC(C)c1cccc(CN[C@H]2CS(=O)(=O)C[C@@H](Cc3ccc(O)c(Br)c3)[C@@H]2O)c1
150 nM | 1900 nM | – | – | 4.2 ×10⁻⁶ cm/s | 0.8 ×10⁻⁶ cm/s | 5.5 | – | – | – | – | CCCCc1cc(C[C@@H]2CS(=O)(=O)C[C@H](NCc3cccc(C(C)C)c3)[C@H]2O)ccc1O
1200 nM | 2100 nM | – | – | 30 ×10⁻⁶ cm/s | 1.8 ×10⁻⁶ cm/s | 17 | – | – | – | – | CC(C)c1cccc(CN[C@H]2CS(=O)(=O)C[C@@H](Cc3ccc(O)c(CO)c3)[C@@H]2O)c1
– | 6400 nM | – | – | 26 ×10⁻⁶ cm/s | 1.4 ×10⁻⁶ cm/s | 19 | < 50 nM | – | 4 min | 670 nM | CCCN1C(=O)OC[C@@H]1Cc1cc(C[C@@H]2CS(=O)(=O)C[C@H](NCc3cccc(C(C)C)c3)[C@H]2O)ccc1O
2300 nM | 2000 nM | – | – | 7.9 ×10⁻⁶ cm/s | 5.7 ×10⁻⁶ cm/s | 1.4 | – | – | – | – | CCCOc1cccc(C[C@@H]2CS(=O)(=O)C[C@H](NCc3cccc(C(C)C)c3)[C@H]2O)c1 (racemic)
> 100000 nM | – | – | – | – | – | – | – | – | – | – | N[C@H]1CS(=O)(=O)C[C@@H](Cc2ccc(O)c(Br)c2)[C@@H]1O
